Several values for one entry are separate records, joined by “and”; a condition that tells them apart may be missing. Equal values may be shown once.
What was measured:
[1] = test system: PC 12 rat pheochromocytoma cells; assay: Cell differentiation assay: neurite-like outgrowth; assay type: cell-based
Protocol: In each case, the degree of neurite-like outgrowth was taken to be 100% in the control wells of untreated PC 12 cells. The degree of differentiation in cell wells in the presence of NGF and/or drug is expressed as a percentage relative to 100% for the control.
PC 12 cells were plated in 24 well plates at 37° C. in 5% CO2 and incubated in DMEM supplemented with 5% fetal bovine serum and the treatments described below. Neurite-like outgrowth in PC 12 cells was detected after a 48 hour period using a Nikon light microscope. For each data point 5 fields of 250-300 cells/well were analyzed. For the quantitation of neurite-like outgrowth the PC 12 cells were considered to have outgrowth if their processes were longer than the length of the diameter of the cell.
A range of concentrations of either NGF (0.1 to 50 ng/mL), FK506 (1 to 500 nM) or L,685-818 (1 to 500 nM) alone or combinations of 0.5 or 5 ng/mL of NGF with either FK506 (5 to 500 nM) or L-685,818 (50 nM to 10 μM), were incubated with the PC 12 cells for a 48 hour incubation period. The wells with untreated cells were used as controls.
The unfiltered solution of the micelle incorporated drug was added to the cell wells at different concentrations: a 10 μL aliquot of a FK506-micelle solution was added to each 0.5 mL cell well. The 10 μL aliquot was produced by diluting the 1.1×10^−5 moles/L FK506-PCL20-b-PEO44 micelle (1% w/w) stock solution. The final concentration of FK506 in the cell well was made to range from […]. In the same manner, a 10 uL aliquot of the L-685,818 micelle solution was added to each 0.5 mL cell well, such that final concentration in the well was made to range from 10 nM to 1 μM. In each case, 5 ng/mL NGF was also added to each cell well. Several controls were also used where the cells were treated with 5 ng/mL of NGF alone, 1% (w/w) PCL20-b-PEO44 micelles alone, 1% (w/w) PCL20-b-PEO44 micelles containing 1 nM FK 506 without NGF or 1% (w/w) PCL20-b-PEO44 micelles containing 10 nM L-685,818.

[2] = polystyrene-b-polyacrylic acid micelles; Zhao et al. 1997; cited from earlier work
[3] = Partition coefficient for pyrene between PCL-b-PEO micelles and water (fluorescence I3/I1 method); assay type: physicochemical; conditions: extrapolation to 100% water content; PCL-b-PEO (20-b-44) micelles
Protocol: The degree of non-covalent incorporation of physical entrapment of a hydrophobic drug into a micelle is determined by the partition coefficient of the drug between the micellar core and the surrounding aqueous medium. The affinity of the PCL-b-PEO micelles for lipophilic compounds was assayed by the determination of the Kv for the hydrophobic model compound, pyrene, between the PCL-b-PEO micelles and water. This method has been previously used to determine the Kv of pyrene between polystyrene-b-polyacrylic acid micelles and water. This fluorescence method is based on pyrene's sensitivity to the hydrophobicity of its microenvironment. […]
The fluorescence method used to determine the partition coefficient for pyrene between a mixed water/DMF solvent mixture (60-90% water content) and block copolymer micelles (concentration PCL20-b-PEO44 ranges from 1×10^−6 to 1×10^−2 g/g), at 25° C., has been described in detail elsewhere (Zhao, J. et al. (1997) Macromolecules, 30:7143-7150). […] Briefly, the intensity ratio of vibrational band three to vibrational band one (I3/I1) in the fluorescence emission spectrum of pyrene reflects the polarity of the surrounding environment of the probe molecules. […]
Steady-state fluorescent spectra were measured using a SPEX Fluorolog 2 spectrometer in the right-angle geometry (90° collecting optics). […] For fluorescence emission spectra, λεξ was 339 nm. […]

PC 12 cells = assay: Cell uptake of pyrene incorporated micelles; assay type: cell-based, rat; conditions: 390 nm, zero time = 1, PCL14-b-PEO44 micelles
Protocol: The in vitro biocompatibility of the PCL-b-PEO micelles (14-b-44, 20-b-44) was tested by incubating the micelles with a wide range of cell lines for both 24-hour and 48-hour periods. The Trypan blue and Alamar blue survival assays were then used to quantify the survival rates in the presence of the PCL-b-PEO micelles. The capability of the PCL-b-PEO micelle system to deliver a hydrophobic compound was first tested in vitro using pyrene as a model compound. The pyrene incorporated PCL-b-PEO micelles were incubated with PC 12 cells over a 24-hour period. At 0, 4, 8 and 24 hours, samples of the supernatant were studied by fluorescence in order to determine the quantity of pyrene remaining in the supernatant at each time point. Likewise, at each time point, cells were isolated and their fluorescence was examined under the fluorescence microscope in order to determine if the decrease in the fluorescence within the supernatant was accompanied by an increase in fluorescence within the cells.
Pyrene incorporated micelles were prepared such that a total of 2×10^−7 moles/L of pyrene had been added to the 1% (w/w) micelle (PCL14-b-PEO44) solution, An aliquot of the micelle solution was incubated with PC 12 cells cultured in DMEM at 37° C., 5% CO2. At time 0, and 4, 8 and 24 hours, the fluorescence intensity (Perkin Elmer LS 50) of the supernatant was measured at 390 nm to determine the amount of pyrene remaining in the supernatant. Controls consisting of medium or medium and micelles alone were also measured. Following the removal of the aliquot of supernatant at each time point, the remaining supernatant was removed and the cells were washed three times with 100 uL of phosphate buffer saline. The cells were then gently scraped and fixed with aquamount on a slide and analyzed using a fluorescence microscope (Olympus BH-2).

[4] = drug alone 1 to 500 nM, 48 h, untreated control = 100%

**Q.** Which “degree of neurite-like outgrowth” value [1, 4] does the source give for `C=CC[C@@H]1/C=C(\C)C[C@H](C)C[C@H](OC)[C@H]2O[C@@](O)(C(=O)C(=O)N3CCCC[C@H]3C(=O)O[C@H](/C(C)=C/[C@@H]3CC[C@@H](O)[C@H](OC)C3)[C@H](C)[C@@H](O)CC1=O)[C@H](C)C[C@@H]2OC` [FK506] here?
**A.** Its value is roughly 100%.

**Q.** And the “degree of neurite-like outgrowth” value ([1]; free FK506 1-100 nM with 5 ng/mL NGF, 48 h)?
**A.** Its value is 220-380%.

**Q.** And the “dose adequate to potentiate neurite-like outgrowth” value ([1]; in vitro, PC12 cell cultures)?
**A.** The value was 1 nM.

**Q.** Which “degree of neurite-like outgrowth” value [1, 4] does the source give for `CC[C@@H]1/C=C(\C)[C@@H](O)[C@H](C)C[C@H](OC)[C@H]2O[C@@](O)(C(=O)C(=O)N3CCCC[C@H]3C(=O)O[C@H](/C(C)=C/[C@@H]3CC[C@@H](O)[C@H](OC)C3)[C@H](C)[C@@H](O)CC1=O)[C@H](C)C[C@@H]2OC` [L-685,818] here?
**A.** Its value is roughly 100%.

**Q.** What about the “effect of drug concentration on degree of differentiation” value ([1]; drug alone, no NGF, 48 h) of the same compound?
**A.** Its value is “no effect on the degree of differentiation”.

**Q.** And the “potentiation of the effect of NGF on neurite-like outgrowth” value ([1]; with 5 ng/mL NGF, PC 12 cell cultures)?
**A.** The value was “potentiate the effect of NGF on the outgrowth of PC 12 cells”.

**Q.** With `c1cc2ccc3cccc4ccc(c1)c2c34` [pyrene] as the compound, how does the “partition coefficient for pyrene between PS-b-PAA micelles and water” value [2] read?
**A.** The value was ~10^5.

**Q.** What about the “partition coefficient (Kv) for pyrene between PCL-b-PEO micelles and water” value [3] of the same compound?
**A.** Its value is ~10^2.

**Q.** And the “relative fluorescence intensity of pyrene in supernatant” value (“relative fluorescence intensity” below) (PC 12 cells; after 4 hours)?
**A.** The value was 0.70 (±0.05).

**Q.** What about the “relative fluorescence intensity” value (PC 12 cells; after 8 hours) of the same compound?
**A.** Its value is 0.60 (±0.05).

**Q.** What about the “relative fluorescence intensity” value (PC 12 cells; after 24 hours) of the same compound?
**A.** The value was 0.55 (±0.05).

**Q.** What does the source list for NGF: nerve growth factor?
**A.** degree of neurite-like outgrowth ([1]; 5 ng/mL NGF alone, 48 h, untreated control = 100%): 160±5% and 180±6%; degree of neurite-like outgrowth ([1]; NGF alone 0.1 to 50 ng/mL, 48 h, untreated control = 100%): 110-260%
